Measured values from PMC4574608, “Genomic profiling of a Hepatocyte growth factor-dependent signature for MET-targeted therapy in glioblastoma” (Journal of Translational Medicine, 2015).
“Also recorded” adds a separate entry of the source.

Tests used:
[1] = test system: G116 PDX model; experiment: GBM PDX therapeutic efficacy; assay type: in vivo, mouse; conditions: G116, highest HGF expression, single agent
Experimental: (§1) All animal studies were approved by the IACUC of Van Andel Research Institute. Subcutaneous and orthotopic tumor initiation were performed as previously described. The orthotopic tumor growth was measured by bioluminescence signal intensity (BLI) using a small animal optical imager AMI 1000 (Spectral Instruments Imaging, LLC). Dosing with V-4084 and/or erlotinib was delivered once daily by oral gavage for 3 weeks. Vehicles used were 0.5 % MC 400 with 0.05 % Tween 80 (for V-4084) and with 0.5 % (w/v) methyl cellulose (for erlotinib). To determine the effectiveness of treatment, the average tumor size of each group from the last measurement was analyzed with Student’s t test (p < 0.05).

[2] = test system: G91 PDX model; experiment: GBM PDX therapeutic efficacy; assay type: in vivo, mouse; conditions: G91, no HGF expression, single agent
Experimental: as §1

[3] = test system: KCI-10-40X1/erl tumors; experiment: Erlotinib-resistant EGFRamp PDX therapeutic efficacy; assay type: in vivo, mouse; conditions: continued erlotinib treatment, discontinuing accelerated growth
Experimental: as §1
(§2) To induce acquired resistance, KCI-10-40X1cells were inoculated into nude mice subcutaneously followed by continuous erlotinib treatment (75–100 mg/kg). […] The same transplant procedure was serially repeated four times to establish the tumor model adaptive to erlotinib treatment (KCI-10-40X1/erl). […] A combination of V-4084 and erlotinib, however, retarded KCI-10-40X1/erl tumor growth (Fig. 5E).

[4] = test system: KCI-10-40X1 tumors; experiment: EGFRamp PDX therapeutic efficacy; assay type: in vivo, mouse
Experimental: as §1, §2

[5] = test system: U87MG cells; experiment: 3D cell invasion assay (spheroid dispersal on Matrigel); assay type: cell-based, human; conditions: at 50 μM, day 3
Experimental: U87MG cells were first grown in 1 % soft agar (Sigma) for 7 days to form spheroids. Each spheroid was then selected and placed onto Matrigel in a well to attach overnight (day 0), followed by treatment with DMSO or serially diluted compounds. Images were taken after an additional 3 days under a light microscope. Triplicates were tested for each concentration.

| SMILES | PDX tumor response to treatment [1] | PDX tumor response to treatment [2] | Tumor growth [3] | Time of continuous treatment until tumors regrow (start of acquired resistance) ([4]; KCI-10-40X1, continuous erlotinib 75–100 mg/kg) [weeks] | Tumor response to treatment ([4]; KCI-10-40X1 subcutaneous in nude mice, erlotinib 75 mg/kg, first week) | U87MG cell dispersal (anti-migratory activity) [5] |
| --- | --- | --- | --- | --- | --- | --- |
| C#Cc1cccc(Nc2ncnc3cc(OCCOC)c(OCCOC)cc23)c1 [erlotinib] | no effect | exactly the opposite | grow while on erlotinib treatment | 5 | high sensitivity; also recorded: significant tumor regression | – |
| Cn1nnc2c(C(N)=O)ncn2c1=O [TMZ, Temozolomide] | – | – | – | – | – | failed to show any anti-migratory activity |
